Data: patent US20230113501A1, “TREATMENT OF LEUKEMIAS AND LYMPHOMAS WITH COMBINATIONS OF BCL-2 INHIBITORS AND PLK1 INHIBITORS” (Cardiff Oncology, Inc., priority 2020, published 2023)

Assays:
OCI-AML3 xenograft [1] = assay: Efficacy of onvansertib alone and in combination with venetoclax in an OCI-AML3 xenograft model (tumor volume, survival); type: in vivo, CB17 NOD.SCID mice; conditions: for Average tumor volume: oral gavage; for Mean Diff. (vehicle vs. treatment), Dunnett's multiple comparisons test: tumor volumes from day 14
Protocol: In this example, the efficacy of onvansertib alone and in combination with venetoclax was evaluated in an OCI-AML3 xenograft model.
The OCI-AML3 cell line easily engrafts in NOD/SCID mice, maintaining the typical features of NPMc+ AML, including NPM cytoplasmic expression.
OCI-AML3 cells (DSMZ cat no: ACC 582) were cultured in RPMI supplemented with 10% FBS and 1%P/S, in a humidified incubator at 37° C. and 5% CO2. Normocin (Invivogen) was also added according to the manufacturer's recommendation to prevent mycoplasma growth.
(§1) CB17 NOD.SCID mice (female, 5 weeks old) were procured through Envigo (Strain NOD.CB17-Prkdc*scidNCrHsd). Mice were fed Teklad irradiated (sterilized) mouse diet and bedded with Teklad irradiated (sterilized) corncob bedding from Envigo (Indianapolis, Ind.). Mice were housed in Optimice carousel sterile quarters with filtered air supply in disposable cages from Animal Care Systems, Inc. (Centennial, Colo.).
On the day of implantation (Oct. 8, 2019), OCI-AML3 cells were collected and spun at 400 ×g. Media was aspirated and cells were resuspended in 50:50 *Cultrex:PBS (w/o calcium and magnesium) at a concentration of 1×10^8 cells/mL. A volume of 100 μL was injected into the right hind flank of each animal (a total of 1×10^7 cells). Filled syringes and cells were kept on ice to prevent gelling of matrigel. *Cultrex: BME, type 3, 17.24 mg/mL R&D systems Cat. #3632-005-02, Lot #40498J17
(§2) Tumor volumes were monitored, and, when mean tumor volume reached ˜200 mm^3, mice were stratified and placed into (4) treatment groups of (10) mice as outlined in Table 1.
(§3) Treatments were administered by oral gavage (polypropylene needles, Instech, Cat. FTP-20-38) daily for venetoclax for 14 days, and 5 days on 2 days off for two cycles for Onvansertib. For clarity, the combination was dosed so that venetoclax was given daily and the onvansertib was given 5 days on, 2 days off, just like the single agent groups.
Individual tumor volumes were measured by electronic caliper 2× a week.
Using tumor volumes from day 14 (the last day with all mice on study), an ordinary ANOVA test with a Dunnett's multiple comparison was performed using Prism (graphpad v. 8.3.0) (Table 4).
A survival graph was plotted (FIG. 2) and survival analysis (death=takedown for tumor burden limit) was also performed using Prism software (individual comparisons of survival curves using the Mantel-Cox test and Gehan-Breslow-Wilcoxon test shown in Table 5).

[2] = Animal health: body weight and tolerability in the OCI-AML3 xenograft study; type: in vivo, CB17 NOD.SCID mice; conditions: the values are: relative body weight (ratio to day 0)
Description: as §1, §2, §3
All dosing was performed without any unexpected problems noted. […] Therefore, the single agents and combination were tolerated at the tested dose and schedule.
The group average change in weight relative to day 0 of the study is shown in […]

OCI-AML3 xenograft [3] = assay: Efficacy of onvansertib alone and in combination with venetoclax in an OCI-AML3 xenograft model (tumor volume, survival); type: in vivo, CB17 NOD.SCID mice; conditions: onvansertib 40 mg/kg
[4] = patients with advanced/metastatic solid tumors, cited from earlier work
PLK1 = PLK1 (Homo sapiens, UniProt P53350); conditions: including other PLK members; cited from earlier work
PLK1, sequence (P53350 whole entry): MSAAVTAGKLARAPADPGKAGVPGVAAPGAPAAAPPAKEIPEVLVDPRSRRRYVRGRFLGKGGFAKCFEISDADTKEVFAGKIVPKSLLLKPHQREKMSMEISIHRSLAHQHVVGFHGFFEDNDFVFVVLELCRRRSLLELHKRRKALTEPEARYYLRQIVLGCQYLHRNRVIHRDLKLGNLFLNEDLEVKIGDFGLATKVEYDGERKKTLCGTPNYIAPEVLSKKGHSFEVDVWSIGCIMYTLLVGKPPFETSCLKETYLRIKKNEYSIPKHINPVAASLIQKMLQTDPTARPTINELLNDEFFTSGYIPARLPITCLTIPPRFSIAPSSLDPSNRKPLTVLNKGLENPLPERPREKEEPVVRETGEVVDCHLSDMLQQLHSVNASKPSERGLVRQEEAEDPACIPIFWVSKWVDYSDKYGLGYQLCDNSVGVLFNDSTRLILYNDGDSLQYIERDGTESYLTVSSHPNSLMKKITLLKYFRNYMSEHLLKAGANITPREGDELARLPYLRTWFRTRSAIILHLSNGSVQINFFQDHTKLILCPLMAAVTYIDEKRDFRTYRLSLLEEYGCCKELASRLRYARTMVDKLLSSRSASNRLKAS

AML cell lines = conditions: cited from earlier work
[5] = Day 0, venetoclax 75 mg/kg, onvansertib 30 mg/kg
[6] = Day 4, venetoclax 75 mg/kg, onvansertib 30 mg/kg
[7] = Day 7, venetoclax 75 mg/kg, onvansertib 30 mg/kg
[8] = Day 11, venetoclax 75 mg/kg, onvansertib 30 mg/kg
[9] = Day 14, venetoclax 75 mg/kg, onvansertib 30 mg/kg
[10] = Day 18, venetoclax 75 mg/kg, onvansertib 30 mg/kg

Row | Structure (SMILES) | Average tumor volume (OCI-AML3 xenograft [1]; [5]) | Average tumor volume (OCI-AML3 xenograft [1]; [6]) | Average tumor volume (OCI-AML3 xenograft [1]; [7]) | Average tumor volume (OCI-AML3 xenograft [1]; [8]) | Average tumor volume (OCI-AML3 xenograft [1]; [9]) | Average tumor volume (OCI-AML3 xenograft [1]; [10]) | Mean Diff. (vehicle vs. treatment), Dunnett's multiple comparisons test (OCI-AML3 xenograft [1]) | Relative body weight (ratio to day 0) ([2]; Day 0) | Relative body weight (ratio to day 0) ([2]; Day 4) | Relative body weight (ratio to day 0) ([2]; Day 7) | Relative body weight (ratio to day 0) ([2]; Day 11) | Relative body weight (ratio to day 0) ([2]; Day 14) | Relative body weight (ratio to day 0) ([2]; Day 18) | further results
1 | CN1CCN(c2ccc(OC(F)(F)F)c(Nc3ncc4c(n3)-c3c(c(C(N)=O)nn3CCO)CC4)c2)CC1 [Onvansertib, 1-(2-hydroxyethyl)-8-{[5-(4-methylpiperazin-1l-yl)-2-(trifluoromethoxy)phenyl]amino}-4,5-dihydro-1H-pyrazolo[4,3-h] quinazoline-3-carboxamide] | 208.48 mm^3 | 367.54 mm^3 | 708.38 mm^3 | 980.01 mm^3 | 1461.86 mm^3 | 2269.05 mm^3 | 960 | 1 | 1.04 | 1.07 | 1.1 | 1.13 | 1.18 | Significant? Dunnett's multiple comparisons test (OCI-AML3 xenograft [1]; tumor volumes from day 14, vehicle vs. treatment): Yes; Survival, Gehan-Breslow-Wilcoxon test, Are the survival curves sig different? (OCI-AML3 xenograft [1]; vehicle vs. treatment): Yes; Survival, Log-rank (Mantel-Cox) test, Are the survival curves sig different? (OCI-AML3 xenograft [1]; vehicle vs. treatment): No; Survival, Log-rank (Mantel-Cox) test, Chi square (OCI-AML3 xenograft [1]; vehicle vs. treatment, death = takedown for tumor burden limit): 3.577; Survival, Gehan-Breslow-Wilcoxon test, Chi square (OCI-AML3 xenograft [1]; vehicle vs. treatment, higher weighing for early events): 5.221; Activity in the OCI-AML3 xenograft (conclusion) (OCI-AML3 xenograft [1]; venetoclax 75 mg/kg, onvansertib 30 mg/kg, and the combination): Activity was noted; Tumor growth inhibition as single agent (OCI-AML3 xenograft [1]; venetoclax 75 mg/kg, onvansertib 30 mg/kg): some tumor growth inhibition; Single agent activity in the previous study (OCI-AML3 xenograft [3]): single agent activity; Half-life [4]: 20 and 30 hours; Primary dose-limiting toxicities ([4]; reversible, recovery within 3 weeks): neutropenia and thrombocytopenia; Specificity for PLK1 among a panel of 296 kinases (PLK1): high specificity; Concentrations that inhibited cell proliferation (AML cell lines): nanomolar concentrations
2 | CC1(C)CCC(CN2CCN(c3ccc(C(=O)NS(=O)(=O)c4ccc(NCC5CCOCC5)c([N+](=O)[O-])c4)c(Oc4cnc5[nH]ccc5c4)c3)CC2)=C(c2ccc(Cl)cc2)C1 [Venetoclax] | 203.78 mm^3 | 441.01 mm^3 | 861.05 mm^3 | 1362.15 mm^3 | 2110.23 mm^3 | 2856.33 mm^3 | 311.6 | 1 | 1.03 | 1.07 | 1.09 | 1.12 | 1.15 | –
